Experimental data from patent publication US20220167615A1, “FUNGICIDAL COMPOSITIONS” (SYNGENTA CROP PROTECTION AG, priority 2019, published 2022).

Experiments:
Phakopsora pachyrhizi = Phakopsora pachyrhizi / soybean / leaf disc preventative (Asian soybean rust); assay type: in vivo; details: foliar, 200 ppm in the applied formulation, soybean leaf disks, inoculated one day after application, assessed 12 to 14 days after application, read-out: percent disease control compared to untreated
[1] = system: Botryotinia fuckeliana (Botrytis cinerea); assay: Botryotinia fuckeliana (Botrytis cinerea) / liquid culture (Gray mould); assay type: cell-based; details: 20 ppm in the applied formulation, Vogels broth, 24° C., 3-4 days after application, vs untreated control, read-out: disease control (inhibition of growth, photometric)
[2] = system: Phaeosphaeria nodorum (Septoria nodorum); assay: Phaeosphaeria nodorum (Septoria nodorum) / wheat / leaf disc preventative (Glume blotch); assay type: in vivo; details: Parastagonospora nodorum, foliar; 200 ppm in the applied formulation; wheat leaf segments cv. Kanzler, inoculated 2 days after application, assessed 5-7 days after application; read-out: percent disease control compared to untreated
[3] = system: Puccinia recondita f. sp. tritici; assay: Puccinia recondita f. sp. tritici / wheat / leaf disc preventative (Brown rust); assay type: in vivo; details: foliar, 200 ppm in the applied formulation, wheat leaf segments cv. Kanzler, inoculated 1 day after application, assessed 7-9 days after application, read-out: percent disease control compared to untreated
[4] = system: Glomerella lagenarium (Colletotrichum lagenarium); assay: Glomerella lagenarium (Colletotrichum lagenarium) / liquid culture (Anthracnose); assay type: cell-based; details: Colletotrichum orbiculare; 20 ppm in the applied formulation; PDB, 24° C., 3 to 4 days after application; vs untreated control; read-out: disease control (inhibition of growth, photometric)
[5] = system: Magnaporthe grisea (Pyricularia oryzae); assay: whole plant or invertebrate; assay type: in vivo; details: foliar, read-out: percent disease control compared to untreated
[6] = system: Monographella nivalis (Microdochium nivale); assay: Monographella nivalis (Microdochium nivale) / liquid culture (foot rot cereals); assay type: cell-based; details: 20 ppm in the applied formulation, PDB, 24° C., 4-5 days after application, vs untreated control, read-out: disease control (inhibition of growth, photometric)
[7] = system: Mycosphaerella arachidis (Cercospora arachidicola); assay: Mycosphaerella arachidis (Cercospora arachidicola) / liquid culture (early leaf spot); assay type: cell-based; details: 20 ppm in the applied formulation, PDB, 24° C., 4-5 days after application, vs untreated control, read-out: disease control (inhibition of growth, photometric)
[8] = system: Mycosphaerella graminicola (Septoria tritici); assay: Mycosphaerella graminicola (Septoria tritici) / liquid culture (Septoria blotch); assay type: cell-based; details: Zymoseptoria tritici; 20 ppm in the applied formulation; PDB, 24° C., 4 to 5 days after application; vs untreated control; read-out: disease control (inhibition of growth, photometric)

COc1ccnc(C(=O)N[C@@H](C)C(=O)O[C@@H](C)C2(c3cccc4ccccc34)CC2)c1O [X.05, [(1S)-1-[1-(1-naphthyl)cyclopropyl]ethyl] (2S)-2-[(3-hydroxy-4-methoxy-pyridine-2-carbonyl)amino]propanoate]
≥ 80%: pest or weed control at 200 ppm (Phakopsora pachyrhizi) | inhibition at 20 ppm [1] | pest or weed control at 200 ppm [2] | pest or weed control at 200 ppm [3] | inhibition at 20 ppm [4] | pest or weed control at 200 ppm [5] | inhibition at 20 ppm [6] | inhibition at 20 ppm [7] | inhibition at 20 ppm [8]

COc1ccnc(C(=O)N[C@@H](C)C(=O)O[C@@H](C)C2(c3cccc4ccccc34)CC2)c1OC(C)=O [X.17, [(1S)-1-[1-(1-naphthyl)cyclopropyl]ethyl] (2S)-2-[(3-acetoxy-4-methoxy-pyridine-2-carbonyl)amino]propanoate]
≥ 80%: pest or weed control at 200 ppm (Phakopsora pachyrhizi) | inhibition at 20 ppm [1] | pest or weed control at 200 ppm [2] | pest or weed control at 200 ppm [3] | inhibition at 20 ppm [4] | pest or weed control at 200 ppm [5] | inhibition at 20 ppm [6] | inhibition at 20 ppm [7] | inhibition at 20 ppm [8]
